Assay results reported in the CheMixHub viscosity set.
± gives the uncertainty stated by the source.

Assay: xn = mol fraction of the nth substance listed

CC(C)[N+](=O)[O-] + Cc1cc(C)cc(C)c1
293.15 K, 101.33 kPa
Settings | viscosity [mPa·s]
x1 = 0.0955 | 0.691 ± 0.007
x1 = 0.1983 | 0.691 ± 0.007
x1 = 0.2294 | 0.69 ± 0.007
x1 = 0.4005 | 0.691 ± 0.007
x1 = 0.5048 | 0.696 ± 0.007
x1 = 0.6007 | 0.701 ± 0.007
x1 = 0.7022 | 0.708 ± 0.007
x1 = 0.8014 | 0.717 ± 0.007
x1 = 0.898 | 0.738 ± 0.007

COc1ccccc1O + c1ccncc1
303.15 K, 101 kPa
Settings | viscosity [mPa·s]
x2 = 0.1 | 5.04 ± 0.13
x2 = 0.2 | 5.38 ± 0.14
x2 = 0.25 | 5.4 ± 0.14
x2 = 0.27 | 5.42 ± 0.15
x2 = 0.3 | 5.4 ± 0.14
x2 = 0.4 | 4.94 ± 0.13
x2 = 0.5 | 4 ± 0.11
x2 = 0.6 | 3.3 ± 0.09
x2 = 0.7 | 2.07 ± 0.05
x2 = 0.8 | 1.48 ± 0.04
x2 = 0.9 | 1.09 ± 0.03

Brc1ccccc1 + CCOC(C)=O
viscosity [mPa·s], 101 kPa
Settings | 298.15 K | 308.15 K
x2 = 0.0463 | 0.997 ± 0.006 | 0.926 ± 0.006
x2 = 0.1501 | 0.906 ± 0.006 | 0.844 ± 0.006
x2 = 0.2468 | 0.829 ± 0.006 | 0.775 ± 0.005
x2 = 0.3482 | 0.756 ± 0.005 | 0.707 ± 0.005
x2 = 0.4571 | 0.686 ± 0.005 | 0.641 ± 0.005
x2 = 0.5073 | 0.656 ± 0.005 | 0.612 ± 0.005
x2 = 0.5465 | 0.633 ± 0.005 | 0.591 ± 0.005
x2 = 0.6468 | 0.58 ± 0.005 | 0.539 ± 0.005
x2 = 0.75 | 0.53 ± 0.005 | 0.49 ± 0.004
x2 = 0.848 | 0.487 ± 0.004 | 0.447 ± 0.004
x2 = 0.9469 | 0.448 ± 0.004 | 0.407 ± 0.004

O=C1CCCCO1 + CNC(C)=O
viscosity [mPa·s], 101 kPa
Settings | x2 = 0.0818 | x2 = 0.2377 | x2 = 0.3396 | x2 = 0.4641 | x2 = 0.5194 | x2 = 0.717 | x2 = 0.7962 | x2 = 0.8929 | x2 = 0.9596
303.15 K | 2.648 ± 0.18 | 2.494 ± 0.17 | 2.393 ± 0.16 | 2.352 ± 0.16 | 2.389 ± 0.16 | 2.607 ± 0.18 | 2.782 ± 0.19 | 3.108 ± 0.21 | 3.512 ± 0.23
308.15 K | 2.412 ± 0.16 | 2.288 ± 0.16 | 2.199 ± 0.15 | 2.203 ± 0.15 | 2.222 ± 0.15 | 2.422 ± 0.17 | 2.583 ± 0.18 | 2.896 ± 0.2 | 3.125 ± 0.21
313.15 K | 2.204 ± 0.15 | 2.101 ± 0.14 | 2.06 ± 0.14 | 2.021 ± 0.14 | 2.023 ± 0.14 | 2.165 ± 0.15 | 2.304 ± 0.16 | 2.559 ± 0.17 | 2.765 ± 0.19
318.15 K | 2.02 ± 0.14 | 1.916 ± 0.13 | 1.862 ± 0.13 | 1.843 ± 0.13 | 1.862 ± 0.13 | 1.994 ± 0.14 | 2.111 ± 0.15 | 2.3 ± 0.16 | 2.491 ± 0.17

CC(C)N + CCC(C)=O
298.15 K, 101 kPa
Settings | viscosity [mPa·s]
x2 = 0.0835 | 0.288 ± 0.002
x2 = 0.1701 | 0.3 ± 0.003
x2 = 0.26 | 0.314 ± 0.003
x2 = 0.3534 | 0.33 ± 0.003
x2 = 0.4505 | 0.345 ± 0.003
x2 = 0.5515 | 0.358 ± 0.003
x2 = 0.6567 | 0.37 ± 0.003
x2 = 0.7663 | 0.371 ± 0.003
x2 = 0.8806 | 0.372 ± 0.003

COC(=O)CC(=O)OC + Cc1ccccc1
303.15 K, 101 kPa
Settings | viscosity [mPa·s]
x1 = 0.0934 | 0.5584 ± 0.0058
x1 = 0.1891 | 0.6061 ± 0.0062
x1 = 0.2852 | 0.6706 ± 0.0068
x1 = 0.3836 | 0.7507 ± 0.0075
x1 = 0.4821 | 0.8493 ± 0.0084
x1 = 0.5831 | 0.9701 ± 0.0096
x1 = 0.6852 | 1.122 ± 0.011
x1 = 0.7891 | 1.307 ± 0.013
x1 = 0.8932 | 1.522 ± 0.015

C1COCCO1 + CCCCO
298.15 K, 101 kPa
Settings | viscosity [mPa·s]
x1 = 0.0346 | 2.264 ± 0.021
x1 = 0.127 | 1.806 ± 0.017
x1 = 0.5 | 1.272 ± 0.061
x1 = 0.5917 | 1.099 ± 0.01
x1 = 0.6726 | 1.074 ± 0.01
x1 = 0.7123 | 1.07 ± 0.01
x1 = 0.768 | 1.073 ± 0.01
x1 = 0.8002 | 1.078 ± 0.01
x1 = 0.8852 | 1.091 ± 0.01
x1 = 0.9472 | 1.126 ± 0.011
